The source of these data is BindingDB's records for doi:10.1080/14756360290019944 (University of Porto-Rua Anibal Cunha, 2002).

The assay concerns the target Xanthine dehydrogenase/oxidase (Homo sapiens, UniProt P47989). Briefly: Inhibition Assay. To be noted: pH 7.8; 25 °C. The procedure: The effect of 2-styrylchromone 1-3 on xanthine oxidase activity was evaluated by measuring the formation of uric acid from xanthine in a double beam spectrophotometer (Shimadzu 2600) at room temperature.

pIC50: −log10 of the molar value. Some results are limits rather than exact numbers.

Chain of Xanthine dehydrogenase/oxidase (P47989 whole entry): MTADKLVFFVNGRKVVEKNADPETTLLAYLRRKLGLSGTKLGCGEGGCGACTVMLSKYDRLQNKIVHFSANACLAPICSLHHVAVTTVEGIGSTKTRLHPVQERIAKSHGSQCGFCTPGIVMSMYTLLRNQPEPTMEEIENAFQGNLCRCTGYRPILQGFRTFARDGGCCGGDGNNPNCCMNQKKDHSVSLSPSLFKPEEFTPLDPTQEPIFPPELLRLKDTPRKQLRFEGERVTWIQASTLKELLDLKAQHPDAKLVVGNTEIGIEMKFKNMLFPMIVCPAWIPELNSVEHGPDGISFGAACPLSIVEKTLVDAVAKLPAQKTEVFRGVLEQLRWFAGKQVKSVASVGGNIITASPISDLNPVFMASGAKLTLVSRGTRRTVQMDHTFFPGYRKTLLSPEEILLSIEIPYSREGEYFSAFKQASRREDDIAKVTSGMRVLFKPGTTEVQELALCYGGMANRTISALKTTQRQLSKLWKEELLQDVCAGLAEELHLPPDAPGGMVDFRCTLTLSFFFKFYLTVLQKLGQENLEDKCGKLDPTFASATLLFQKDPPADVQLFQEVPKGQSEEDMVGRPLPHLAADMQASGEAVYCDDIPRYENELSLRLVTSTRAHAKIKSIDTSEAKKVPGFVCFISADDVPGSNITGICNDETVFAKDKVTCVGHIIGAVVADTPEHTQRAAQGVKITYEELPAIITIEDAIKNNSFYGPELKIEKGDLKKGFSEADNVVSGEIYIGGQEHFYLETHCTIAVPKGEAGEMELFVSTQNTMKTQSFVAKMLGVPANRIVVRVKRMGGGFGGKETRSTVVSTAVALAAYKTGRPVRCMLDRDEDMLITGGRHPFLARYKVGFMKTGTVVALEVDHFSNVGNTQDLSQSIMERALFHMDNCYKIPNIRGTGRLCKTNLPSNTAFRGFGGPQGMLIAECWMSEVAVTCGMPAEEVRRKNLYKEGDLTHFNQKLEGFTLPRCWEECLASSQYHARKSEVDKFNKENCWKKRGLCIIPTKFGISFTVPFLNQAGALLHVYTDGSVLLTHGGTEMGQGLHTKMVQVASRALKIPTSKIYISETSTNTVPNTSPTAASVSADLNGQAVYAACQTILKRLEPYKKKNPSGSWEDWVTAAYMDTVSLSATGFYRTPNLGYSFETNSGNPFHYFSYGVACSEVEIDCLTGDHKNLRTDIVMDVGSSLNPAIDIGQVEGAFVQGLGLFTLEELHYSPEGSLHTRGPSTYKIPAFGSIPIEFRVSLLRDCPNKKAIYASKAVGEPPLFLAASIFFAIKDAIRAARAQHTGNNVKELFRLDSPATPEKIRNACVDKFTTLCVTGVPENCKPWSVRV

Molecule `O=c1cc(/C=C/c2ccc(O)c(O)c2)oc2cc(O)ccc12` [2-Styrylchromone derivate, 3b] had a pIC50 of 5.69.

Regarding `O=c1cc(O)cc2oc(C=Cc3ccc(O)c(O)c3)cc(O)c1-2` [2-Styrylchromone derivate, 3c], the pIC50 is 6.26.

The molecule `O=c1cc(/C=C/c2ccccc2)oc2cc(O)ccc12` [2-Styrylchromone derivate, 1c] showed a pIC50 of 4.77.

For `O=c1cc(C=Cc2ccc(O)cc2)oc2cc(O)cc(O)c12` [2-Styrylchromone derivate, 2c], the pIC50 was 5.02.

Turning to `O=c1cc(C=Cc2ccccc2)oc2cc(O)cc(O)c12` [2-Styrylchromone derivate, 1d], the negative-log IC50 (pIC50) was 5.60.

`O=c1cccc2oc(C=Cc3ccc(O)cc3)cc(O)c1-2` [2-Styrylchromone derivate, 2a] showed a negative logarithm of the IC50 (pIC50) of 4.11.

Take `O=c1cccc2oc(C=Cc3ccc(O)c(O)c3)cc(O)c1-2` [2-Styrylchromone derivate, 3a]: the pIC50 is 5.36.

`O=c1cccc2oc(C=Cc3ccccc3)cc(O)c1-2` [2-Styrylchromone derivate, 1b] showed a pIC50 of 4.28.

Molecule `O=c1cc(/C=C/c2ccccc2)oc2ccccc12` gave a pIC50 of under 4.00.

Take `O=c1cc(/C=C/c2ccc(O)cc2)oc2cc(O)ccc12` [2-Styrylchromone derivate, 2b]: the pIC50 was 4.71.

The term pIC50 denotes −log10 of the IC50, conventionally taken in molar units.
